Reference: publication PMC4326127, “Collagen Inhibitory Peptide R1R2 Mediates Vascular Remodeling by Decreasing Inflammation and Smooth Muscle Cell Activation” (PLoS ONE, 2015)
Entries after “also recorded” stand apart in the source; their conditions may differ.

How the values were obtained:
HUVECs = experiment: HUVEC proliferation assay; assay type: cell-based, human; settings: at the start of the adhesion assay, versus control peptide; data not shown; in words
Procedure: (§1) Human umbilical vein endothelial cells (HUVECs) and A7r5 SMCs were provided by Resource Center (SB3, NSC 100-2325-B-080-001), National Research Program for Biopharmaceuticals (Hsinchu, Taiwan). HUVECs were maintained in M199 (Life Technologies, Carlsbad, CA) with 25U/ml heparin (Sigma-Aldrich, St. Louis, MO), 10% fetal bovine serum (FBS) and endothelial cell growth supplement (ECGS; Millipore, Billerica, MA). A7r5 SMCs were grown in Dulbecco’s Modified Eagle’s Medium (DMEM) containing high glucose, supplemented with 10% fetal bovine serum. Human U937 cells were grown in RPMI1640 with 10% FBS.
(§2) A7r5 cells and HUVECs were growth-arrested and then stimulated with 10% FBS or 10 ng/ml TNF-αovernight after serum starvation as indicated in the figure legend. Briefly, trypan blue-excluding cells were counted with a hemocytometer, and data were analyzed using GraphPad Prism Software (San Diego, CA) as in previous studies. A second observer performed a similar analysis to verify the initial findings.

VCAM-1 [1] = experiment: Western blot of VCAM-1 in TNF-α-treated HUVECs; assay type: cell-based, human; settings: in words
Procedure: as §1
(§3) Tissues or cells were homogenized with RIPA buffer supplemented with protease inhibitor cocktail (Sigma-Aldrich, St. Louis, MO). Cell lysates were spun at 12,000 rpm for 15 min at 4°C, then electrophoresed on 10% SDS-PAGE gel and transferred to nitrocellulose. […]
(§4) Fig 8 R1R2 decreases TNF-α-induced monocyte U937 cell adhesion to HUVECs and transendothelial migration and reduces ICAM-1 and VCAM-1 levels. […] Calcein-AM labeled U937 monocyte adhesion to TNF-α HUVECs was quantitated by fluorescence intensity. Microscopic images showing U937 monocytes adhering to HUVECs as assessed by in vitro adhesion assay. […]

ICAM-1 = experiment: Western blot of ICAM-1 in TNF-α-treated HUVECs; assay type: cell-based, human; settings: in words
Procedure: as §1, §3, §4

[2] = system: smooth muscle α-actin (SMAA); experiment: IHC for smooth muscle α-actin in ligated carotid artery; assay type: in vivo, FVB/NJ (FVB) mice; settings: 7 days post-ligation; mean ± SEM; scrambled n = 6, R1R2 n = 5 (sham 0.232 ± 0.011, n = 5)
Procedure: (§5) Animals were anesthetized with isoflurane inhalation. The left common carotid artery was exposed, dissected free from the surrounding connective tissue and completely ligated with 6-0 silk suture just proximal to the carotid bifurcation. […] 4–10 mice were included in each experimental group.
(§6) Paraffin sections selected from the first mm of the carotid artery in each group were used for immunohistochemistry (IHC). […] Sections were then incubated with appropriate biotinylated secondary antibodies followed by avidin-biotin immunoperoxidase system (Vector Laboratories, Burlingame, CA). Liquid DAB Substrate Chromogen system (Dako, Carpinteria, CA) was used for detection.
(§7) Quantitative IHC analysis was performed on digital images captured with a 20x objective by using Image-Pro Plus software. Data from 3–6 mice for each group were averaged, and the average values ± SEM were shown. For FN, collagen type I, SM-MHC and SM α-actin, color digital images were transformed into gray scale, and the sum of the optical densities from the intima+media area in each section was determined. […] The percent of positive cells is reported as the proliferation index. […] The intima+media region was traced manually. The percent of positively stained area in intima+media to the total traced area was assessed.
(§8) For in vivo experiments, the data are shown as the mean ± SEM. […]

VCAM-1 [3] = experiment: VCAM-1 IHC in ligated carotid artery; assay type: in vivo, FVB/NJ (FVB) mice; settings: 7 days after ligation; percent of positively stained area; mean ± SEM; R1R2 n = 7, control peptide n = 9
Procedure: as §5, §6, §7, §8

Ki-67 (+) cells = experiment: Ki-67 IHC, cell proliferation in carotid intima and media; assay type: in vivo, FVB/NJ (FVB) mice; settings: 7 days post-surgery, mean ± SEM, n = 5 each
Procedure: as §5, §6, §7, §8

[4] = system: binding of FN to collagen type I; experiment: Solid-phase binding assay (competitive ELISA) of FN to collagen; parameters: species or system human FN; rat collagen type I; settings: 4 nM FN incubated with peptide at 4°C overnight, then on wells coated with 10 μg/ml collagen I overnight at 37°C; anti-FN/HRP, ABTS, A405
Procedure: Human FN and rat collagen type I for competitive ELISA were purchased from Sigma-Aldrich (St. Louis, MO).
The FN-peptide solutions were added to collagen or BSA-coated wells, and the plates were incubated overnight at 37°C. The wells were washed and a rabbit anti-FN antibody was added for 90 minutes at room temperature. Wells were washed and then incubated with a horseradish peroxidase-conjugated secondary antibody. After washing was completed, peroxidase activity was quantified using 2,2'-azino-bis-(3-ethylbenthiazoline-6-sulfonic acid). Measurements were done at 405 nm (A405) using a SpectraMax M5 microplate reader (Molecular Device, Sunnyvale, CA).
Bound FN was detected with an anti-FN antibody followed by HRP-conjugated secondary antibody, and ABTS as described in Methods. The absorbance at 405nm was quantitated.

U937 cells / HUVECs = experiment: Monocyte U937 transendothelial migration assay; assay type: cell-based, human; settings: HUVECs on 5um transwells, 10 ng/ml TNF-α; U937 1.5x10^5 cells/transwell, 1.5 hours at 37°C; fluorescence 485/535; mean ± SD
Procedure: (§9) For in vivo experiments, the data are shown as the mean ± SEM. For in vitro experiments, the data shown are the means ± SD of a representative experiment, at least 3 independent experiments were performed. One-way ANOVA with post-hoc testing were used for data analysis with GraphPad Prism software (GraphPad, San Diego, CA). If normality test failed, nonparametric Kruskal-Wallis test followed by Dunn's post-hoc test were used. P > 0.05 was not considered significant.

FN = experiment: IHC for FN in ligated carotid artery; assay type: in vivo, FVB/NJ (FVB) mice; settings: for FN IHC intensity in intima-media area: mean ± SEM
Procedure: as §5, §6, §7, §9

A7r5 SMCs = experiment: A7r5 SMC growth study; assay type: cell-based
Procedure: as §1, §2, §9
Fig 6 R1R2 reduces SMC proliferation and migration. (A) A7r5 SMC growth study over 96 hours. After serum starvation and treatment with R1R2 or scrambled peptides for 36 hours, cells were stimulated with 10% FBS over 96 hours. Cells were counted at the indicated time in the figure (n = 5). (B) A7r5 SMCs were pretreated with R1R2 or scramble peptide for 36 hours. […] (C) Quantitation of SMC migration in the scratch wound healing assay was performed by subtracting the cell-free area 30 hours after PDGF-BB stimulation from the cell-free area in the beginning (n = 5). * indicates p<0.05 and ** p< 0.01.

GLNGENQKEPEQGERGEAGPPLSGLSGNNQGRPSLPGLNGENQKEPEQGERGEAGPP [R1R2]
effect on HUVEC cell number (HUVECs): No significant decrease | VCAM-1 expression on HUVECs (VCAM-1 [1]): significantly decreased | ICAM-1 expression on HUVECs (ICAM-1): significantly decreased; also recorded: transient and detected earlier than the effect on VCAM-1 expression | SMAA IHC staining in intima-media area [2]: 0.214 ± 0.004 | VCAM-1 (+) area in intima-media (VCAM-1 [3]): 10.36 ± 1.802% | proliferation index (Ki-67 (+) cells/total cells) (Ki-67 (+) cells): 11.20 ± 0.62% | effect on FN-collagen type I binding [4]: blocked the binding of FN to collagen type I in a dose-dependent manner | U937 transendothelial migration (U937 cells / HUVECs): 65633 ± 20412 cells per well | effect on FN intensity (FN; 7 and 14 days after ligation, R1R2 vs scrambled peptide, in words): no significant decrease of FN intensity | FN IHC intensity in intima-media area (FN; 7 days after ligation, R1R2 n = 6, scrambled n = 6): 0.153 ± 0.012 | FN IHC intensity in intima-media area (FN; 14 days after ligation, R1R2 n = 7, scrambled n = 7): 0.309 ± 0.005 | effect on A7r5 SMC growth (A7r5 SMCs; 48–96 hours, in comparison with scrambled peptide, in words): significantly inhibited A7r5 SMC growth after 48–96 hours | A7r5 SMC growth, cell number (A7r5 SMCs; 48hr, 10% FBS after serum starvation and 36 hours peptide treatment, hemocytometer, trypan blue, mean ± SD, n = 5): 1.5 ± 0.224 x 10^5
